From article PMC5400565, “Real-time near-infrared fluorescence imaging using cRGD-ZW800-1 for intraoperative visualization of multiple cancer types” (Oncotarget, 2017)

Tests used:
Potassium Channel hERG = Potassium Channel hERG (Homo sapiens, UniProt Q12809)
dopamine receptor D2S = target: T1, dopamine receptor D2S (Homo sapiens, UniProt P14416); assay: Off-target screening (Eurofins Cerep), D2S; type: binding
T1 construct: Eurofins Cerep SA (contract screening)

Muscarinic M2 = target: T2, Muscarinic M2 (Homo sapiens, UniProt P08172); assay: Off-target screening (Eurofins Cerep), M2; type: binding
T2 construct: Eurofins Cerep SA (contract screening)

[1] = tested on: orthotopic HT-29 colon tumors; assay: In vivo competition, orthotopic HT-29 model; set-up: species or system mice
Experimental: All animals were imaged using a Pearl® imager (LI-COR, Lincoln, NE) and an original FLARE® prototype. Animals with HT-29 tumors were imaged at 4 and 24 h post injection; animals with BxPC-3 and OSC-19 tumors at 4 h only. Animals with MCF-7 tumors were imaged at 0.5, 1, 2, 4, 6, 8, 24 and 48 h post injection. The specific and control images were normalized and regions of interest (ROIs) were selected using associated software. TBRs were calculated by dividing the tumor signal by the background signal. Based on our experience a TBR ≥ 2 is sufficient to discriminate between tumor and surrounding tissue.
The binding specificity of cRGD-ZW800-1 was explored in a competition experiment using an excess of unlabeled cRGD (200-fold excess) co-injected with a standard dose of 10 nmol cRGD-ZW800-1 (n = 4). Simultaneously, mice (n = 3) were injected with 10 nmol cRGD-ZW800-1 as positive control. All mice had orthotopic HT-29 colon tumors. Images were acquired at 4 and 24 h post-injection after which animals were sacrificed and organs were resected and scanned with Pearl®.

Serotonin 5-HT1A = target: T3, Serotonin 5-HT1A (Homo sapiens, UniProt P08908); assay: Off-target screening (Eurofins Cerep), 5-HT1A; type: binding
T3 construct: Eurofins Cerep SA (contract screening)

Dopamine transporter = target: T4, Dopamine transporter (Homo sapiens, UniProt Q01959); assay: Off-target screening (Eurofins Cerep), dopamine transporter; type: binding
T4 construct: Eurofins Cerep SA (contract screening)

Cannabinoid CB2 = target: T5, Cannabinoid CB2 (Homo sapiens, UniProt P34972); assay: Off-target screening (Eurofins Cerep), CB2; type: binding
T5 construct: Eurofins Cerep SA (contract screening)

cyclooxygenase-2 (COX-2) = target: T6, cyclooxygenase-2 (COX-2) (Homo sapiens, UniProt P35354); assay: Off-target screening (Eurofins Cerep), COX2; type: biochemical
T6 construct: Eurofins Cerep SA (contract screen)

Serotonin 5-HT2A = target: T7, Serotonin 5-HT2A (Homo sapiens, UniProt P28223); assay: Off-target screening (Eurofins Cerep), 5-HT2A; type: binding
T7 construct: Eurofins Cerep SA (contract screening)

Adrenergic β2 = target: T8, Adrenergic β2 (Homo sapiens, UniProt P07550); assay: Off-target screening (Eurofins Cerep), β2; type: binding
T8 construct: Eurofins Cerep SA (contract screening)

[2] = Pharmacokinetics in mice without tumors; type: in vivo
Experimental: cRGD-ZW800-1 was diluted in 0.05 mM HEPES buffered mouse serum to the concentrations 5.00, 4.50, 4.00, 3.50, 3.00, 2.50, 2.00, 1.50, 1.00, 0.50, 0.25, 0.13, 0.06, 0.03, and 0.02 μM. A calibration curve was created by measuring each concentration in 60 μL capillary tubes (Hirschmann® Laborgeräte GmbH and co. KG, Eberstadt, Germany) using the FLARE® with exposure times of: 1, 2, 5, 10, 25, 50, 100, 200, 500, 1000, and 2000 msec. Data were plotted in fluorescence intensity over concentration (μM) (Supplementary Figure 2, Supplementary Data). For each exposure time, the formula of the linear regression line was calculated. Subsequently, 5 mice without tumors were injected with 10 nmol cRGD-ZW800-1 via the lateral tail vein. The contralateral lateral tail vein was used to draw blood on the time points -5, 1, 6, 10, 20, 30, 40, 50, 60, 90, 120, and 240 min. post injection. Blood samples were absorbed using 60 μL capillary tubes and immediately measured using the FLARE® with the same exposure times. Saturated images and those under the detection limit were excluded from analysis. Each measurement was calculated back to its concentration using the matching formulas (Supplementary Figure 3, Supplementary Data). The mean of each formula output was used as the concentration. Data was analyzed using NONMEM® software (Icon Development Solutions, Ellicott City, MD, U.S.A.). Data were plotted in logarithmic and linear concentration (μM) over time (min).

Serotonin 5-HT1B = target: T9, Serotonin 5-HT1B (Rattus norvegicus, UniProt P28564); assay: Off-target screening (Eurofins Cerep), 5-HT1B; type: binding
T9 construct: Eurofins Cerep SA (contract screening)

[3] = tested on: GABA channels BZD (central); assay: Off-target screening (Eurofins Cerep), BZD (central); type: binding
Excerpt: Off-target interactions are binding of tracers to other components on the cell surface than the actual target site. These non-specific interactions are often of low affinity and easily missed, but can have significant effects. We outsourced the screening for in vitro for off-target interactions of cRGD-ZW800-1 to Eurofins Cerep SA, Le bois l’Evêque, France. They assessed the percentage of inhibition of a reference compound in 44 selected targets, including G protein-coupled receptors (GPCRs), transporters, ion channels, nuclear receptors, kinases and other non-kinase enzymes. These targets were recommended by four major pharmaceutical companies. The complete list is included in Supplementary Table 1 of the Supplementary Data. Each assay was performed twice using 10 μM cRGD-ZW800-1 and a reference compound. Inhibition higher than 50% was considered to represent a significant effect of cRGD-ZW800-1. Results showing between 20% and 50% were considered weak to moderate effects, while lower than 20% was not considered significant and mostly attributable to variability of the signal around the control level.

[4] = 10 μM cRGD-ZW800-1, format H, An, performed twice, read-out: % Inhibition of Control Specific Binding
[5] = 10 μM, mean of 2, read-out: % of Control Specific Binding Mean
[6] = 10 μM cRGD-ZW800-1, format H, Ag, performed twice, read-out: % Inhibition of Control Specific Binding
[7] = mice, 10 nmol i.v., mean ± SD, n = 5

Sequence of Potassium Channel hERG (Q12809 whole entry): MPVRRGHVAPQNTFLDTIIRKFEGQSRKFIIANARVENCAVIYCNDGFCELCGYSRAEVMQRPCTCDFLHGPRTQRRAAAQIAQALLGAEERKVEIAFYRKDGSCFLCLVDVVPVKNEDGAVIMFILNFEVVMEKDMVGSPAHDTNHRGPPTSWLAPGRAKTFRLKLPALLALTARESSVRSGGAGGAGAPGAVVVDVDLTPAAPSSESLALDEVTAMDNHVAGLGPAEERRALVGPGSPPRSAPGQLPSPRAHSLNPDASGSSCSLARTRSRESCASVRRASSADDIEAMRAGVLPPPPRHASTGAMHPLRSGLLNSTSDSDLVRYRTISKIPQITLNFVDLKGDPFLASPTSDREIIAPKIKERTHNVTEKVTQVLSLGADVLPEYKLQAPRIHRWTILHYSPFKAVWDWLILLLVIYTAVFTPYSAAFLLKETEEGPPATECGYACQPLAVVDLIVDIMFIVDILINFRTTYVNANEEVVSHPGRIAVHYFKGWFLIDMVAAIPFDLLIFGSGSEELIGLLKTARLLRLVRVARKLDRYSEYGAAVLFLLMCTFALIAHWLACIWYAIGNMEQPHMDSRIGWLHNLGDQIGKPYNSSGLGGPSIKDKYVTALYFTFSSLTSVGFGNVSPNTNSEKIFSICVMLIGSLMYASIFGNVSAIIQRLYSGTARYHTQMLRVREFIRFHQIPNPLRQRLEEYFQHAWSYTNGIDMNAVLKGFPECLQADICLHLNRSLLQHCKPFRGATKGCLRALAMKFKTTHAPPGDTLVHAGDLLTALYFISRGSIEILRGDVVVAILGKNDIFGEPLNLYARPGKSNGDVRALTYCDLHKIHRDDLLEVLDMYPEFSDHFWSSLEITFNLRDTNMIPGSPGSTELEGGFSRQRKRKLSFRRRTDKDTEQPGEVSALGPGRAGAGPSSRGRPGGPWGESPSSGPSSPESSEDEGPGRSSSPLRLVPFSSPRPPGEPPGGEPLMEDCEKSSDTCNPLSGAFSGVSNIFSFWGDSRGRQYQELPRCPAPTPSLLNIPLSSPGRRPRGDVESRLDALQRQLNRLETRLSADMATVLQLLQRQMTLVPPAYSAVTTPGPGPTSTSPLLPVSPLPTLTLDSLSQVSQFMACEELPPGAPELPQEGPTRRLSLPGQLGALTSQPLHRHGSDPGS
T6 sequence (P35354 18-604): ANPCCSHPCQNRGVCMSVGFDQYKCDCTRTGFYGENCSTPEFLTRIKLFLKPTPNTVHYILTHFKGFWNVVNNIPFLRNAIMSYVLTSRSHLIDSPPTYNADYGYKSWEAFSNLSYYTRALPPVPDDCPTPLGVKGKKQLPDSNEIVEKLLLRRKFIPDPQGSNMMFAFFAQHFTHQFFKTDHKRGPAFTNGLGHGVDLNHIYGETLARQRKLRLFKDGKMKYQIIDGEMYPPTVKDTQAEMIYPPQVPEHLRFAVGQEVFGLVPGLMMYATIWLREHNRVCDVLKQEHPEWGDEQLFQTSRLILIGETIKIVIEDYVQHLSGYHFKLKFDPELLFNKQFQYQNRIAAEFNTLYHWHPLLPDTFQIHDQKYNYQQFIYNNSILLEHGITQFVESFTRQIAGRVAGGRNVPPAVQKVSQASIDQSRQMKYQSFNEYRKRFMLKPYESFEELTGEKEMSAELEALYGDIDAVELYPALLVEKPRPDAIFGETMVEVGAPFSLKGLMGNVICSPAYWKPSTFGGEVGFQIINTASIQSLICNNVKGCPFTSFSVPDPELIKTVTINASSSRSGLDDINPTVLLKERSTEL
T5 sequence (P34972 whole entry): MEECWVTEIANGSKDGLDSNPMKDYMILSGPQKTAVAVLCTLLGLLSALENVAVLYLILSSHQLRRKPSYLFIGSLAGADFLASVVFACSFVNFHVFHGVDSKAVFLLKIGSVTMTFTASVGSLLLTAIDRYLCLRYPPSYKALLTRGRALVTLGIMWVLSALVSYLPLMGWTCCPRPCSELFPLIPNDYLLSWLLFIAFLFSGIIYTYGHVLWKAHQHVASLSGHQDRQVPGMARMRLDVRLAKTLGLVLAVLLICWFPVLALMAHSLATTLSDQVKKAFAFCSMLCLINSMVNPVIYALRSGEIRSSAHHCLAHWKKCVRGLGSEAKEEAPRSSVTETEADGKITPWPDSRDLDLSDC
T9 sequence (P28564 whole entry): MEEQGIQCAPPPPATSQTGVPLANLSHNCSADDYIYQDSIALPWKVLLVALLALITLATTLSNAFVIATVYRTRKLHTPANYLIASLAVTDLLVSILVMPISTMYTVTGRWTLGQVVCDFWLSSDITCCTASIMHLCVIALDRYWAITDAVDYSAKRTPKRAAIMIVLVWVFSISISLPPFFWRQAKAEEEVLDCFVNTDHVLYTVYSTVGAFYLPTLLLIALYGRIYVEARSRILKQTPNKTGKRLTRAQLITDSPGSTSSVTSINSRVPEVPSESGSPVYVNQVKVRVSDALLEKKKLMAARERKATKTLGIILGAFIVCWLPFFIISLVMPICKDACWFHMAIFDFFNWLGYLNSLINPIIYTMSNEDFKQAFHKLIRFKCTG
T8 sequence (P07550 whole entry): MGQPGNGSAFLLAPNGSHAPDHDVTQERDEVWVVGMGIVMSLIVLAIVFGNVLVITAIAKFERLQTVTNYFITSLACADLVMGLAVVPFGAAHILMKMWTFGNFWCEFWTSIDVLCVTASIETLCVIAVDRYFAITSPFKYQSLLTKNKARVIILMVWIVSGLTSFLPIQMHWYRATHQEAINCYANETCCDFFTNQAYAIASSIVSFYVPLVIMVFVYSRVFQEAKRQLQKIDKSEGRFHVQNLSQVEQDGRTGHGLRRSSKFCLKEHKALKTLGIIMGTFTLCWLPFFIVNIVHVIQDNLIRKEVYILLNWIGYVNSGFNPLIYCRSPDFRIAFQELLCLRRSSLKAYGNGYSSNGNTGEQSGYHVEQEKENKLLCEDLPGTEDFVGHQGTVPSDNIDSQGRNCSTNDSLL
T1 sequence (P14416 1-414 isoform P14416-2): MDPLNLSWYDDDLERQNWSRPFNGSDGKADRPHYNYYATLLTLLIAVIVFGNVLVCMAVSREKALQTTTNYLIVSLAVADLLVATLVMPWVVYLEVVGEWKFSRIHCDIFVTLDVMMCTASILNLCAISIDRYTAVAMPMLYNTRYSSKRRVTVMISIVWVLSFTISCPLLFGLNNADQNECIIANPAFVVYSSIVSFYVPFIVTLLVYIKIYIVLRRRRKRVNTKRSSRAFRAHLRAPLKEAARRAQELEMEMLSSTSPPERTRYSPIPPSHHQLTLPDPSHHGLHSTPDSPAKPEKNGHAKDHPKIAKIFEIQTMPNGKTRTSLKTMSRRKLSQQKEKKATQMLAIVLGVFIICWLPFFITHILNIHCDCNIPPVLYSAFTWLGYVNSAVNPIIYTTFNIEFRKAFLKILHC
T4 sequence (Q01959 whole entry): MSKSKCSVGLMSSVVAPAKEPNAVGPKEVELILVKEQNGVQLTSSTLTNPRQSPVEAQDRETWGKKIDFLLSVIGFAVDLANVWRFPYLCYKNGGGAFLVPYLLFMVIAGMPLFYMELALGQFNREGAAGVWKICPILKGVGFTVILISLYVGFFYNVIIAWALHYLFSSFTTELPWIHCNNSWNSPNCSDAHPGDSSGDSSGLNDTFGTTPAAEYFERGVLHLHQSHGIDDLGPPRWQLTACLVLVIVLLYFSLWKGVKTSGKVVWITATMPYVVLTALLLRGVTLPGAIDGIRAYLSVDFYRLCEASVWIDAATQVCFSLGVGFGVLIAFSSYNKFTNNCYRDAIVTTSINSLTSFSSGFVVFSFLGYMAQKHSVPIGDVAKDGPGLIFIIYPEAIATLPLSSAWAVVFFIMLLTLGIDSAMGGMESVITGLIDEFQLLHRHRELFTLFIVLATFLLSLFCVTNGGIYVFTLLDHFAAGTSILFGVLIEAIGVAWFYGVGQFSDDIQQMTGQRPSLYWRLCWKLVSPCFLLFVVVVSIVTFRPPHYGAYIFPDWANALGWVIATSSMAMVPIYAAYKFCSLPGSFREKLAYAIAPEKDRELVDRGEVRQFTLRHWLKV
T3 sequence (P08908 whole entry): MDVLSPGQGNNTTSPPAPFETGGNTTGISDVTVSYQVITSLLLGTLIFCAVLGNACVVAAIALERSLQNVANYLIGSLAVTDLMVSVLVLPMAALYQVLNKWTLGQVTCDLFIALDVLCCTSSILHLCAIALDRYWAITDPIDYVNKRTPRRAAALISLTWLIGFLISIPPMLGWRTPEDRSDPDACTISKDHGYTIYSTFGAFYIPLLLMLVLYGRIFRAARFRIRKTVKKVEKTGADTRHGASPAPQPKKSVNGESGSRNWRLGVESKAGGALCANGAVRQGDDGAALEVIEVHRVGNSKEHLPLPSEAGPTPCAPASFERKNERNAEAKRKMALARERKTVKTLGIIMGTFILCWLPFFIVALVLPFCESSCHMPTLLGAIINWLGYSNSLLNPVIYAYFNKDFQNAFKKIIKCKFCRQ
T7 sequence (P28223 whole entry): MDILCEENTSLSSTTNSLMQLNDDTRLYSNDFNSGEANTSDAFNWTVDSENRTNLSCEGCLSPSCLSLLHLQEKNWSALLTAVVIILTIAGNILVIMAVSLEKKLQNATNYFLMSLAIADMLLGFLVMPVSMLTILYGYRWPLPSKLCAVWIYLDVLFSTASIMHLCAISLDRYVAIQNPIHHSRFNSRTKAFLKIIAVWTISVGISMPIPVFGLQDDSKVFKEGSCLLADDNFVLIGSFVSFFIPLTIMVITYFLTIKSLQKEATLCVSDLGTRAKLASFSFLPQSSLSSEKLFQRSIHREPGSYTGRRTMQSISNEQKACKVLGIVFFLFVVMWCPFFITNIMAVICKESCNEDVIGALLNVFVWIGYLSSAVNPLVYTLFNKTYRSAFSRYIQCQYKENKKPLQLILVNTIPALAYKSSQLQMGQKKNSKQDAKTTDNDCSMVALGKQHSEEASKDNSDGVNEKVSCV

## CC1(C)C(/C=C/C2=C(Oc3ccc(CCC(=O)NCCCC[C@@H]4NC(=O)[C@@H](Cc5ccc(O)cc5)NC(=O)[C@H](CC(=O)O)NC(=O)CNC(=O)[C@H](CCCNC(=N)N)NC4=O)cc3)C(=C/C=C3/N(CCC[N+](C)(C)C)c4ccc(S(=O)(=O)O)cc4C3(C)C)/CCC2)=[N+](CCC[N+](C)(C)C)c2ccc(S(=O)(=O)O)cc21 [cRGD-ZW800-1]
Potassium Channel hERG
  % Inhibition of Control Specific Binding: -6%
Potassium Channel hERG; 10 µM
  % of Control Specific Binding 1st: 106.4%
  % of Control Specific Binding 2nd: 104.8%
Dopamine receptor D2S; [4]
  inhibition at 10 µM: 22%
Dopamine receptor D2S; [5]
  remaining activity at 10 µM: 78.2%
Muscarinic M2; [4]
  inhibition at 10 µM: -20%
Muscarinic M2; [5]
  remaining activity at 10 µM: 120%
[1]; 10 nmol cRGD-ZW800-1 alone, n = 3, healthy colon as background, mean ± SD
  TBR at 4 h, control: 3.2 ± 0.5
[1]; 10 nmol cRGD-ZW800-1 co-injected with 2.0 μmol unlabeled cRGD (200-fold), n = 4, mean ± SD
  TBR at 4 h, with unlabeled cRGD: 1.8 ± 0.4
Serotonin 5-HT1A; [6]
  inhibition at 10 µM: 9%
Serotonin 5-HT1A; [5]
  remaining activity at 10 µM: 90.9%
Dopamine transporter; [4]
  inhibition at 10 µM: 5%
Dopamine transporter; [5]
  remaining activity at 10 µM: 95%
Cannabinoid CB2; [6]
  inhibition at 10 µM: -11%
Cannabinoid CB2; [5]
  remaining activity at 10 µM: 111%
cyclooxygenase-2 (COX-2); 10 μM cRGD-ZW800-1, format H, performed twice, read-out: % Inhibition of Control Specific Binding
  inhibition at 10 µM: 62%
cyclooxygenase-2 (COX-2); [5]
  remaining activity at 10 µM: 38%
Serotonin 5-HT2A; [6]
  inhibition at 10 µM: -9%
Serotonin 5-HT2A; [5]
  remaining activity at 10 µM: 109%
Adrenergic β2; [6]
  inhibition at 10 µM: 5%
Adrenergic β2; [5]
  remaining activity at 10 µM: 95%
[2]; mice, 10 nmol i.v., mean systemic clearance ± SD, n = 5
  Clearance: 0.25 ± 0.06 mL/min
[2]; [7]
  Distribution (α) half-life: 14.6 ± 1.7 min
  Terminal (β) half-life: 71.1 ± 9.4 min
[2]; mice, 10 nmol i.v., measured at 1 minute post injection, n = 5, fluorescence (FLARE) with calibration curve
  maximal concentration in serum: 1.17 µM
[2]; mice, 10 nmol i.v., trapezoid rule, mean ± SD, n = 5
  AUC: 38.9 ± 8.9
[2]; mice, blood, 10 nmol i.v., calculated via ln(2)/k10, mean ± SD, n = 5
  Half-life: 25.3 ± 6.4 min
[2]; mouse no. 1
  Elimination (β) half-life: 64.8 min
[2]; mouse no. 2
  Elimination (β) half-life: 85.4 min
[2]; mouse no. 3
  Elimination (β) half-life: 68.6 min
[2]; mouse no. 4
  Elimination (β) half-life: 75.2 min
[2]; mouse no. 5
  Elimination (β) half-life: 61.8 min
Serotonin 5-HT1B; 10 μM cRGD-ZW800-1, format An, performed twice, read-out: % Inhibition of Control Specific Binding
  inhibition at 10 µM: 1%
Serotonin 5-HT1B; [5]
  remaining activity at 10 µM: 99.1%
[3]; 10 μM cRGD-ZW800-1, format Ag, performed twice
  % Inhibition of Control Specific Binding: 2%
[3]; 10 μM, mean of 2
  % of Control Specific Binding Mean: 97.6%
